Reference: US12539292B2, “BRM targeting compounds and associated methods of use” (Arvinas Operations, Inc., priority 2018, dated 2026)
Where two headings read alike, the source gives them in different places.

Target: T1, BRM (Homo sapiens, UniProt P51531)
T1 construct: In-Cell Western Screen of BRM Degradation in SW1573 Cells; endogenous in cells; host or cells: SW1573
Experiment: In-cell Western screen of BRM degradation in SW1573 cells (Dmax and DC50)
Assay type: cell-based
How it was run: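 Near-infrared imaging on a LI-COR Odyssey (800 and 680 nm channels) quantifies BRM remaining in fixed SW1573 cells. Cells are dosed for 18-20 h at 0.1% final DMSO, and degradation is expressed as Dmax and DC50.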

[1] = BRM degradation, SW1573 cells, read-out: DC50
[2] = BRM degradation, SW1573 cells, tested at the top concentration of between 0.3 and 10 μM, read-out: Dmax (%) (% degraded)
[3] = BRM degradation, SW1573 cells, read-out: Dmax (% degraded)
[4] = SW1573, % degraded, when tested at the top concentration of between 0.3 and 10 μM, read-out: BRM Dmax (%)
[5] = target protein degradation, read-out: BRM DC50
[6] = BRM degradation, SW1573 cells, Table 2D, read-out: *DC50

T1 sequence (P51531 whole entry): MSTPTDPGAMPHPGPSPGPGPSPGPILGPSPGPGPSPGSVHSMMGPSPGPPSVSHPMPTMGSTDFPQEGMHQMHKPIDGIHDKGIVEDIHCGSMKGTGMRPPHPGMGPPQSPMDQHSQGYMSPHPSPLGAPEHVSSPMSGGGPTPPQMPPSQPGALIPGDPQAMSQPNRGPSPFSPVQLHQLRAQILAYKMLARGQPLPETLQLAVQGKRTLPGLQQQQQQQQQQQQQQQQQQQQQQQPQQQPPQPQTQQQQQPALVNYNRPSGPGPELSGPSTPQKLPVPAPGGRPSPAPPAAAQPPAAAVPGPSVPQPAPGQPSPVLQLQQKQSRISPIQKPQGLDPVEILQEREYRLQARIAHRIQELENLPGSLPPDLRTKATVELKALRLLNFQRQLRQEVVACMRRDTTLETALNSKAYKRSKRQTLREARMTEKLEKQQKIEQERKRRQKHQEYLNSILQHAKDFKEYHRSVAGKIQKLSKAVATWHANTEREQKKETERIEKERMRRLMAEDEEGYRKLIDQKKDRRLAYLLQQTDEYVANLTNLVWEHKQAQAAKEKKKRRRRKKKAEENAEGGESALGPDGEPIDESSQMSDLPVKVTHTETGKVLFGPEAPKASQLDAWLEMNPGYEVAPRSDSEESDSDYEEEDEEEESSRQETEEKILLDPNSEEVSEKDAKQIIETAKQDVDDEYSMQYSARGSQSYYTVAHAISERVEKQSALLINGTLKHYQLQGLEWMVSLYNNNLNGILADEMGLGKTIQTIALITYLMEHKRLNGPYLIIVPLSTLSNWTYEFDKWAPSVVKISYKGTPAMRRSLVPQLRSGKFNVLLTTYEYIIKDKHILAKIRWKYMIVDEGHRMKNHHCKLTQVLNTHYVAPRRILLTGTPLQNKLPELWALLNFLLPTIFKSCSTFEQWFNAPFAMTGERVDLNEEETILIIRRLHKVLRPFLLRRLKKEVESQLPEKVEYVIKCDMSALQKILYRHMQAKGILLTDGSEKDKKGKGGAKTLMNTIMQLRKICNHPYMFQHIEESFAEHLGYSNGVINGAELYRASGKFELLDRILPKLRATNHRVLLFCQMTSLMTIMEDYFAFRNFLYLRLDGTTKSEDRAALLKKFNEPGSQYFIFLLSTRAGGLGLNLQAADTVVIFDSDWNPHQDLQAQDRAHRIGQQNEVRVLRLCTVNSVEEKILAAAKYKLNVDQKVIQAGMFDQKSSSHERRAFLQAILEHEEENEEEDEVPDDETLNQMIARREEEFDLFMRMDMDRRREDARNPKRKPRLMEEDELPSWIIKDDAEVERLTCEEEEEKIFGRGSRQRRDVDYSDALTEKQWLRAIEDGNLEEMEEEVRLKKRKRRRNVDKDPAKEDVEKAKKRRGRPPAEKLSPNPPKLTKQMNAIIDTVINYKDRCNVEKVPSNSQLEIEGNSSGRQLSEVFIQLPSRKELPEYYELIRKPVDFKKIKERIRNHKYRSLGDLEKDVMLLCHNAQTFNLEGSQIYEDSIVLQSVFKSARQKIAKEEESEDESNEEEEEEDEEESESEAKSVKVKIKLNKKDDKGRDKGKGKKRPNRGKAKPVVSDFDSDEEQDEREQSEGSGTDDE

In the case of `Cc1ncsc1-c1ccc([C@H](C)NC(=O)[C@@H]2C[C@@H](O)CN2C(=O)[C@@H](c2cc(OCCN3CCC(O[C@H]4C[C@H](Oc5cc(N6C7CCC6CN(c6cc(-c8ccccc8O)nnc6N)C7)ccn5)C4)CC3)no2)C(C)C)cc1F` [compound 253, (2S,4R)-1-((2R)-2-(3-(2-(4-((1r,3R)-3-((4-(3-(3-amino-6-(2-hydroxyphenyl)pyridazin-4-yl)-3,8-diazabicyclo[3.2.1]octan-8-yl)pyridin-2-yl)oxy)cyclobutoxy)piperidin-1-yl)ethoxy)isoxazol-5-yl)-3-methylbutanoyl)-N-((S)-1-(3-fluoro-4-(4-methylthiazol-5-yl)phenyl)ethyl)-4-hydroxypyrrolidine-2-carboxamide], the DC50 [1] is reported as < 2.5 nM and the Dmax [2] is reported as > 75%.

`Cc1ncsc1-c1ccc([C@H](C)NC(=O)[C@@H]2C[C@@H](O)CN2C(=O)[C@@H](c2cc(N3CCC(C(C)N4CCC(O[C@H]5C[C@H](Oc6cc(N7C8CCC7CN(c7cc(-c9ccccc9O)nnc7N)C8)ccn6)C5)CC4)CC3)no2)C(C)C)cc1` (stereo partly drawn) [compound 644, (2S,4R)-1-((2R)-2-(3-(4-(1-(4-((1r,3r)-3-((4-(3-(3-amino-6-(2-hydroxyphenyl)pyridazin-4-yl)-3,8-diazabicyclo[3.2.1]octan-8-yl)pyridin-2-yl)oxy)cyclobutoxy)piperidin-1-yl)ethyl)piperidin-1-yl)isoxazol-5-yl)-3-methylbutanoyl)-4-hydroxy-N-((S)-1-(4-(4-methylthiazol-5-yl)phenyl)ethyl)pyrrolidine-2-carboxamide] was tested, and the DC50 [1] was < 2.5 nM and the Dmax [3] was > 75%.

`Cc1cc([C@@H](C(=O)N2C[C@H](O)C[C@H]2C(=O)N[C@@H](C)c2ccc(-c3scnc3C)cc2)[C@@H](C)CO[C@H]2C[C@@H](Oc3cc(N4C5CCC4CN(c4cc(-c6ccccc6O)nnc4N)C5)ccn3)C2)on1` [compound 481, (2S,4R)-1-((2S,3R)-4-((1s,3S)-3-((4-(3-(3-amino-6-(2-hydroxyphenyl)pyridazin-4-yl)-3,8-diazabicyclo[3.2.1]octan-8-yl)pyridin-2-yl)oxy)cyclobutoxy)-3-methyl-2-(3-methylisoxazol-5-yl)butanoyl)-4-hydroxy-N-((S)-1-(4-(4-methylthiazol-5-yl)phenyl)ethyl)pyrrolidine-2-carboxamide] was tested, and the Dmax [4] was > 75% and the DC50 [5] was < 2.5 nM.

With `Cc1ncsc1-c1ccc([C@H](C)NC(=O)[C@@H]2C[C@@H](O)CN2C(=O)[C@@H](c2cc(N3CCC(CN4CCC(COc5cc(N6C7CCC6CN(c6cc(-c8ccccc8O)nnc6N)C7)ccn5)CC4)CC3)no2)C(C)C)cc1` [compound 603, (2S,4R)-1-((2R)-2-(3-(4-((4-(((4-(3-(3-amino-6-(2-hydroxyphenyl)pyridazin-4-yl)-3,8-diazabicyclo[3.2.1]octan-8-yl)pyridin-2-yl)oxy)methyl)piperidin-1-yl)methyl)piperidin-1-yl)isoxazol-5-yl)-3-methylbutanoyl)-4-hydroxy-N-((S)-1-(4-(4-methylthiazol-5-yl)phenyl)ethyl)pyrrolidine-2-carboxamide] the Dmax (BRM degradation, SW1573 cells, Table 2D, read-out: **Dmax (%) (% degraded)) was > 75% and the DC50 [6] was < 2.5 nM.

With `Cc1ncsc1-c1ccc([C@H](C)NC(=O)[C@@H]2C[C@@H](O)CN2C(=O)[C@@H](c2cc(OCCC3CCN(C(=O)[C@H]4C[C@@H](CN5CCC([C@H](C)n6cc(-c7cc(-c8ccccc8O)nnc7N)cn6)CC5)C4)CC3)no2)C(C)C)cc1` [compound 450, (2S,4R)-1-((R)-2-(3-(2-(1-((1R,3S)-3-((4-((S)-1-(4-(3-amino-6-(2-hydroxyphenyl)pyridazin-4-yl)-1H-pyrazol-1-yl)ethyl)piperidin-1-yl)methyl)cyclobutane-1-carbonyl)piperidin-4-yl)ethoxy)isoxazol-5-yl)-3-methylbutanoyl)-4-hydroxy-N-((S)-1-(4-(4-methylthiazol-5-yl)phenyl)ethyl)pyrrolidine-2-carboxamide] the Dmax [4] was > 75% and the DC50 [5] was 10 to 30 nM.

`Cc1ncsc1-c1ccc([C@@H](CCO)NC(=O)[C@@H]2C[C@@H](O)CN2C(=O)[C@@H](c2cc(N3CCC(CN4CCC(O[C@H]5C[C@H](Oc6cc(N7C8CCC7CN(c7cc(-c9ccccc9O)nnc7N)C8)ccn6)C5)CC4)CC3)no2)C(C)C)cc1` [compound 662, (2S,4R)-1-((2R)-2-(3-(4-((4-((1r,3r)-3-((4-(3-(3-amino-6-(2-hydroxyphenyl)pyridazin-4-yl)-3,8-diazabicyclo[3.2.1]octan-8-yl)pyridin-2-yl)oxy)cyclobutoxy)piperidin-1-yl)methyl)piperidin-1-yl)isoxazol-5-yl)-3-methylbutanoyl)-4-hydroxy-N-((R)-3-hydroxy-1-(4-(4-methylthiazol-5-yl)phenyl)propyl)pyrrolidine-2-carboxamide] was tested, and the DC50 [1] was 2.5 to 10 nM and the Dmax [3] was > 75%.

`Cc1ncsc1-c1ccc([C@H](C)NC(=O)[C@@H]2C[C@@H](O)CN2C(=O)[C@H](c2cc(OCCOc3ccc(C(C)n4cc(-c5cc(-c6ccccc6O)nnc5N)cn4)cc3)no2)C(C)C)cc1` (stereo partly drawn) [compound 156, (2S,4R)-1-((2S)-2-(3-(2-(4-(1-(4-(3-amino-6-(2-hydroxyphenyl)pyridazin-4-yl)-1H-pyrazol-1-yl)ethyl)phenoxy)ethoxy)isoxazol-5-yl)-3-methylbutanoyl)-4-hydroxy-N-((S)-1-(4-(4-methylthiazol-5-yl)phenyl)ethyl)pyrrolidine-2-carboxamide] was tested, and the DC50 [1] was > 30 nM and the Dmax [2] was > 75%.

In the case of `Cc1ncsc1-c1ccc([C@H](C)NC(=O)[C@@H]2C[C@@H](O)CN2C(=O)C(c2cc(OCCN3[C@H](C)C[C@H](O[C@H]4C[C@H](Oc5cc(N6C7CCC6CN(c6cc(-c8ccccc8O)nnc6N)C7)ccn5)C4)C[C@@H]3C)no2)C(C)C)cn1` (stereo partly drawn) [compound 448, (2S,4R)-1-(2-(3-(2-((2S,4S,6R)-4-((1r,3R)-3-((4-(3-(3-amino-6-(2-hydroxyphenyl)pyridazin-4-yl)-3,8-diazabicyclo[3.2.1]octan-8-yl)pyridin-2-yl)oxy)cyclobutoxy)-2,6-dimethylpiperidin-1-yl)ethoxy)isoxazol-5-yl)-3-methylbutanoyl)-4-hydroxy-N-((S)-1-(6-(4-methylthiazol-5-yl)pyridin-3-yl)ethyl)pyrrolidine-2-carboxamide], the Dmax [4] is reported as > 75% and the DC50 [5] is reported as < 2.5 nM.

For `Cc1ncsc1-c1ccc([C@H](C)NC(=O)[C@@H]2C[C@@H](O)CN2C(=O)[C@@H](c2cc(N3CCC(CN4CCC(O[C@H]5C[C@H](C#C[C@@H](C)n6cc(-c7cc(-c8ccccc8O)nnc7N)cn6)C5)CC4)CC3)no2)C(C)C)cc1` [compound 496, (2S,4R)-1-((R)-2-(3-(4-((4-((1R,3r)-3-((R)-3-(4-(3-amino-6-(2-hydroxyphenyl)pyridazin-4-yl)-1H-pyrazol-1-yl)but-1-yn-1-yl)cyclobutoxy)piperidin-1-yl)methyl)piperidin-1-yl)isoxazol-5-yl)-3-methylbutanoyl)-4-hydroxy-N-((S)-1-(4-(4-methylthiazol-5-yl)phenyl)ethyl)pyrrolidine-2-carboxamide], the DC50 (BRM degradation, read-out: BRM DC50) was < 2.5 nM and the Dmax [4] was > 75%.

With `Cc1cc([C@H](C(=O)N2C[C@H](O)C[C@H]2C(=O)N[C@@H](C)c2ccc(-c3scnc3C)cc2)[C@H](C)COCCCCn2cc(-c3cc(-c4ccccc4O)nnc3N)cn2)on1` [compound 558, (2S,4R)-1-((2R,3S)-4-(4-(4-(3-amino-6-(2-hydroxyphenyl)pyridazin-4-yl)-1H-pyrazol-1-yl)butoxy)-3-methyl-2-(3-methylisoxazol-5-yl)butanoyl)-4-hydroxy-N-((S)-1-(4-(4-methylthiazol-5-yl)phenyl)ethyl) pyrrolidine-2-carboxamide] the DC50 [6] was > 30 nM.

With `Cc1ncsc1-c1ccc([C@H](C)NC(=O)[C@@H]2C[C@@H](O)CN2C(=O)[C@@H](c2cc(OCCC3CCN(C(=O)[C@H]4C[C@H](CN5CCC([C@H](C)n6cc(-c7cc(-c8ccccc8O)nnc7N)cn6)CC5)C4)CC3)no2)C(C)C)cc1` [compound 454, (2S,4R)-1-((R)-2-(3-(2-(1-((1S,3R)-3-((4-((S)-1-(4-(3-amino-6-(2-hydroxyphenyl)pyridazin-4-yl)-1H-pyrazol-1-yl)ethyl)piperidin-1-yl)methyl)cyclobutane-1-carbonyl)piperidin-4-yl)ethoxy)isoxazol-5-yl)-3-methylbutanoyl)-4-hydroxy-N-((S)-1-(4-(4-methylthiazol-5-yl)phenyl)ethyl)pyrrolidine-2-carboxamide] the DC50 [5] was > 30 nM.

`Cc1ncsc1-c1ccc([C@H](C)NC(=O)[C@@H]2C[C@@H](O)CN2C(=O)[C@H](c2onc(OCCN3CCC(O[C@H]4C[C@H](Oc5cc(N6C7CCC6CN(c6cc(-c8ccccc8O)nnc6N)C7)ccn5)C4)CC3)c2F)C(C)C)cc1` [compound 208, (2S,4R)-1-((2S)-2-(3-(2-(4-((1r,3S)-3-((4-(3-(3-amino-6-(2-hydroxyphenyl)pyridazin-4-yl)-3,8-diazabicyclo[3.2.1]octan-8-yl)pyridin-2-yl)oxy)cyclobutoxy)piperidin-1-yl)ethoxy)-4-fluoroisoxazol-5-yl)-3-methylbutanoyl)-4-hydroxy-N-((S)-1-(4-(4-methylthiazol-5-yl)phenyl)ethyl)pyrrolidine-2-carboxamide] was tested, and the DC50 [1] was > 30 nM and the Dmax [2] was > 75%.

In the case of `Cc1nccn1-c1ccc([C@H](C)NC(=O)[C@@H]2C[C@@H](O)CN2C(=O)[C@@H](c2cc(OC/C=C/c3ccc(O[C@H]4C[C@H](Oc5cc(N6C7CCC6CN(c6cc(-c8ccccc8O)nnc6N)C7)ccn5)C4)cn3)no2)C(C)C)cc1` [compound 277, (2S,4R)-1-((2R)-2-(3-(((E)-3-(5-((1r,3R)-3-((4-(3-(3-amino-6-(2-hydroxyphenyl)pyridazin-4-yl)-3,8-diazabicyclo[3.2.1]octan-8-yl)pyridin-2-yl)oxy)cyclobutoxy)pyridin-2-yl)allyl)oxy)isoxazol-5-yl)-3-methylbutanoyl)-4-hydroxy-N-((S)-1-(4-(2-methyl-1H-imidazol-1-yl)phenyl)ethyl)pyrrolidine-2-carboxamide], the DC50 [1] is reported as < 2.5 nM and the Dmax [2] is reported as > 75%.
